# In the supplement of paper PMC4862054:
# Tested on: BT-474
# Test: normalised response (% of control), CellTox Green; higher = less cell death (100 = DMSO, 0 = benzethonium chloride kill control)
# Details: incubation time: 72 h
# Method in brief: (§1)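 Each value is the plate-normalised signal at one concentration of the series. Breast cancer cell lines (20 µl suspension) were incubated 72 h in 384-well plates with compound at 5 concentrations in 10-fold steps over a compound-specific 10,000-fold range. CellTox Green and then CellTiter-Glo were read, and each plate was scaled to 0.1 % DMSO (100) and a positive kill control (0).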
row,Compound,normalised response [%]
1,O=C(/C=C/c1cccnc1)NCCCCC1CCN(C(=O)c2ccccc2)CC1 [Daporinad] (1000 nM),97.5
2,COc1cc2nccc(Oc3ccc(NC(=O)Nc4cc(C)on4)c(Cl)c3)c2cc1OC [Tivozanib] (10000 nM),85.2
3,CC(=O)Nc1cccc(-n2c(=O)n(C3CC3)c(=O)c3c(Nc4ccc(I)cc4F)n(C)c(=O)c(C)c32)c1 [Trametinib] (250 nM),101
4,CC[C@H](C)C(=O)O[C@H]1C[C@H](O)C=C2C=C[C@H](C)[C@H](CC[C@@H](O)C[C@@H](O)CC(=O)O)[C@H]21 [Pravastatin] (10000 nM),99.4

# Tested on: BT-549
# Test: as above
# Details: incubation time: 72 h
# Method in brief: as §1
row,Compound,normalised response [%]
1,O=C(/C=C/c1cccnc1)NCCCCC1CCN(C(=O)c2ccccc2)CC1 [Daporinad] (1000 nM),91.1
2,COc1cc2nccc(Oc3ccc(NC(=O)Nc4cc(C)on4)c(Cl)c3)c2cc1OC [Tivozanib] (10000 nM),126
3,CC(=O)Nc1cccc(-n2c(=O)n(C3CC3)c(=O)c3c(Nc4ccc(I)cc4F)n(C)c(=O)c(C)c32)c1 [Trametinib] (250 nM),119
4,CC[C@H](C)C(=O)O[C@H]1C[C@H](O)C=C2C=C[C@H](C)[C@H](CC[C@@H](O)C[C@@H](O)CC(=O)O)[C@H]21 [Pravastatin] (10000 nM),90.3

# Tested on: CAL-120
# Test: as above
# Details: incubation time: 72 h
# Method in brief: as §1
row,Compound,normalised response [%]
1,O=C(/C=C/c1cccnc1)NCCCCC1CCN(C(=O)c2ccccc2)CC1 [Daporinad] (1000 nM),101
2,COc1cc2nccc(Oc3ccc(NC(=O)Nc4cc(C)on4)c(Cl)c3)c2cc1OC [Tivozanib] (10000 nM),89.6
3,CC(=O)Nc1cccc(-n2c(=O)n(C3CC3)c(=O)c3c(Nc4ccc(I)cc4F)n(C)c(=O)c(C)c32)c1 [Trametinib] (250 nM),77.3
4,CC[C@H](C)C(=O)O[C@H]1C[C@H](O)C=C2C=C[C@H](C)[C@H](CC[C@@H](O)C[C@@H](O)CC(=O)O)[C@H]21 [Pravastatin] (10000 nM),101

# Tested on: CAL-148
# Test: as above
# Details: incubation time: 72 h
# Method in brief: as §1
row,Compound,normalised response [%]
1,O=C(/C=C/c1cccnc1)NCCCCC1CCN(C(=O)c2ccccc2)CC1 [Daporinad] (1000 nM),98.8
2,COc1cc2nccc(Oc3ccc(NC(=O)Nc4cc(C)on4)c(Cl)c3)c2cc1OC [Tivozanib] (10000 nM),78.1
3,CC(=O)Nc1cccc(-n2c(=O)n(C3CC3)c(=O)c3c(Nc4ccc(I)cc4F)n(C)c(=O)c(C)c32)c1 [Trametinib] (250 nM),86
4,CC[C@H](C)C(=O)O[C@H]1C[C@H](O)C=C2C=C[C@H](C)[C@H](CC[C@@H](O)C[C@@H](O)CC(=O)O)[C@H]21 [Pravastatin] (10000 nM),91.6

# Tested on: CAL-51
# Test: as above
# Details: incubation time: 72 h
# Method in brief: as §1
row,Compound,normalised response [%]
1,O=C(/C=C/c1cccnc1)NCCCCC1CCN(C(=O)c2ccccc2)CC1 [Daporinad] (1000 nM),108
2,COc1cc2nccc(Oc3ccc(NC(=O)Nc4cc(C)on4)c(Cl)c3)c2cc1OC [Tivozanib] (10000 nM),25
3,CC(=O)Nc1cccc(-n2c(=O)n(C3CC3)c(=O)c3c(Nc4ccc(I)cc4F)n(C)c(=O)c(C)c32)c1 [Trametinib] (250 nM),86.8
4,CC[C@H](C)C(=O)O[C@H]1C[C@H](O)C=C2C=C[C@H](C)[C@H](CC[C@@H](O)C[C@@H](O)CC(=O)O)[C@H]21 [Pravastatin] (10000 nM),16.5

# Tested on: CAL-85-1
# Test: as above
# Details: incubation time: 72 h
# Method in brief: as §1
row,Compound,normalised response [%]
1,O=C(/C=C/c1cccnc1)NCCCCC1CCN(C(=O)c2ccccc2)CC1 [Daporinad] (1000 nM),93.5
2,COc1cc2nccc(Oc3ccc(NC(=O)Nc4cc(C)on4)c(Cl)c3)c2cc1OC [Tivozanib] (10000 nM),100
3,CC(=O)Nc1cccc(-n2c(=O)n(C3CC3)c(=O)c3c(Nc4ccc(I)cc4F)n(C)c(=O)c(C)c32)c1 [Trametinib] (250 nM),31.4
4,CC[C@H](C)C(=O)O[C@H]1C[C@H](O)C=C2C=C[C@H](C)[C@H](CC[C@@H](O)C[C@@H](O)CC(=O)O)[C@H]21 [Pravastatin] (10000 nM),106

# Tested on: DU-4475
# Test: as above
# Details: incubation time: 72 h
# Method in brief: as §1
row,Compound,normalised response [%]
1,O=C(/C=C/c1cccnc1)NCCCCC1CCN(C(=O)c2ccccc2)CC1 [Daporinad] (1000 nM),101
2,COc1cc2nccc(Oc3ccc(NC(=O)Nc4cc(C)on4)c(Cl)c3)c2cc1OC [Tivozanib] (10000 nM),98
3,CC(=O)Nc1cccc(-n2c(=O)n(C3CC3)c(=O)c3c(Nc4ccc(I)cc4F)n(C)c(=O)c(C)c32)c1 [Trametinib] (250 nM),73.2
4,CC[C@H](C)C(=O)O[C@H]1C[C@H](O)C=C2C=C[C@H](C)[C@H](CC[C@@H](O)C[C@@H](O)CC(=O)O)[C@H]21 [Pravastatin] (10000 nM),93.2

# Tested on: HCC1143
# Test: as above
# Details: incubation time: 72 h
# Method in brief: as §1
row,Compound,normalised response [%]
1,O=C(/C=C/c1cccnc1)NCCCCC1CCN(C(=O)c2ccccc2)CC1 [Daporinad] (1000 nM),105
2,COc1cc2nccc(Oc3ccc(NC(=O)Nc4cc(C)on4)c(Cl)c3)c2cc1OC [Tivozanib] (10000 nM),110
3,CC(=O)Nc1cccc(-n2c(=O)n(C3CC3)c(=O)c3c(Nc4ccc(I)cc4F)n(C)c(=O)c(C)c32)c1 [Trametinib] (250 nM),120
4,CC[C@H](C)C(=O)O[C@H]1C[C@H](O)C=C2C=C[C@H](C)[C@H](CC[C@@H](O)C[C@@H](O)CC(=O)O)[C@H]21 [Pravastatin] (10000 nM),101

# Tested on: HCC1599
# Test: as above
# Details: incubation time: 72 h
# Method in brief: as §1
row,Compound,normalised response [%]
1,O=C(/C=C/c1cccnc1)NCCCCC1CCN(C(=O)c2ccccc2)CC1 [Daporinad] (1000 nM),90.5
2,COc1cc2nccc(Oc3ccc(NC(=O)Nc4cc(C)on4)c(Cl)c3)c2cc1OC [Tivozanib] (10000 nM),102
3,CC(=O)Nc1cccc(-n2c(=O)n(C3CC3)c(=O)c3c(Nc4ccc(I)cc4F)n(C)c(=O)c(C)c32)c1 [Trametinib] (250 nM),110
4,CC[C@H](C)C(=O)O[C@H]1C[C@H](O)C=C2C=C[C@H](C)[C@H](CC[C@@H](O)C[C@@H](O)CC(=O)O)[C@H]21 [Pravastatin] (10000 nM),89.1

# Tested on: HCC1937
# Test: as above
# Details: incubation time: 72 h
# Method in brief: as §1
row,Compound,normalised response [%]
1,O=C(/C=C/c1cccnc1)NCCCCC1CCN(C(=O)c2ccccc2)CC1 [Daporinad] (1000 nM),67.6
